Experimental data published in publication PMC4774911, “Biochemical Screening of Five Protein Kinases from Plasmodium falciparum against 14,000 Cell-Active Compounds” (PLoS ONE, 2016).
Where two headings read alike, the source gives them in different places.

How the values were obtained:
[1] = target: T1, Plasmodium falciparum calcium-dependent protein kinase 4 (CDPK4) (Plasmodium falciparum, UniProt Q8IBS5); assay: CDPK4 Kinase-Glo ATP-consumption screen and dose-response; format: biochemical; details: hits below 1 uM
T1 construct: 6-Histidine (N); made in house
T1 sequence (Q8IBS5 1-528): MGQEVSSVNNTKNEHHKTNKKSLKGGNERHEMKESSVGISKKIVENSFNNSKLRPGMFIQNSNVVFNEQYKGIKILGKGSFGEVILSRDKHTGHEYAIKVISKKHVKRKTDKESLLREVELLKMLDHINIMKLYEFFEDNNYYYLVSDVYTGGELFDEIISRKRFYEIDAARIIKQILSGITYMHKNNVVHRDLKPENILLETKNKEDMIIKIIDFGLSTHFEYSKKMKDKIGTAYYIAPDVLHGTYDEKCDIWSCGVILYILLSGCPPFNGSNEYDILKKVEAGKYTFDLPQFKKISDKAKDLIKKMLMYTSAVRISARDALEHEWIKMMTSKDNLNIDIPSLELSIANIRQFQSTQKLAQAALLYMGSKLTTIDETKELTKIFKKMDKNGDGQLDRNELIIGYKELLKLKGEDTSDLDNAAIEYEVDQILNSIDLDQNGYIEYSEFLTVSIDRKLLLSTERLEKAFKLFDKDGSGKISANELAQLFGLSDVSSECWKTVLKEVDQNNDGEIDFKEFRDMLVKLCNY
Protocol: Biochemical assays were performed in white 384-well plates (Nunc). Liquid transfers were done manually with 8-channel pipets. Compounds were initially tested in a single-point screen (final concentration 1 μM). […] The catalytic activity of each kinase was considered proportional to ATP consumed, as determined from measurements of residual [ATP] with the luciferase-based reagent Kinase-Glo (Promega) following incubation. Luminescence (proportional to residual [ATP]) was measured on the plate readers FLx800 (BioTek Instruments, Winooski, VT, USA) and MicroBeta^2 (PerkinElmer, Waltham, MA, USA). Incubation times were chosen to ensure near-complete ATP depletion in the absence of inhibition, thus maximizing the difference in signal between inhibited and uninhibited wells.
40 μM Syntide-2 was used as a substrate; BKI-1 [14] was used as a control inhibitor, while reaction mixtures lacking Syntide-2 were included as an additional negative control. Incubation time was 90 minutes. Reactions were terminated by adding excess EGTA (5 mM), which sequesters Ca^2+ and halts calcium-dependent kinase activity.

PKG [2] = target: T2, PKG (Plasmodium falciparum, UniProt Q8I719); assay: PKG IC50 (supplementary data file of hits); format: biochemical
T2 sequence (Q8I719 whole entry): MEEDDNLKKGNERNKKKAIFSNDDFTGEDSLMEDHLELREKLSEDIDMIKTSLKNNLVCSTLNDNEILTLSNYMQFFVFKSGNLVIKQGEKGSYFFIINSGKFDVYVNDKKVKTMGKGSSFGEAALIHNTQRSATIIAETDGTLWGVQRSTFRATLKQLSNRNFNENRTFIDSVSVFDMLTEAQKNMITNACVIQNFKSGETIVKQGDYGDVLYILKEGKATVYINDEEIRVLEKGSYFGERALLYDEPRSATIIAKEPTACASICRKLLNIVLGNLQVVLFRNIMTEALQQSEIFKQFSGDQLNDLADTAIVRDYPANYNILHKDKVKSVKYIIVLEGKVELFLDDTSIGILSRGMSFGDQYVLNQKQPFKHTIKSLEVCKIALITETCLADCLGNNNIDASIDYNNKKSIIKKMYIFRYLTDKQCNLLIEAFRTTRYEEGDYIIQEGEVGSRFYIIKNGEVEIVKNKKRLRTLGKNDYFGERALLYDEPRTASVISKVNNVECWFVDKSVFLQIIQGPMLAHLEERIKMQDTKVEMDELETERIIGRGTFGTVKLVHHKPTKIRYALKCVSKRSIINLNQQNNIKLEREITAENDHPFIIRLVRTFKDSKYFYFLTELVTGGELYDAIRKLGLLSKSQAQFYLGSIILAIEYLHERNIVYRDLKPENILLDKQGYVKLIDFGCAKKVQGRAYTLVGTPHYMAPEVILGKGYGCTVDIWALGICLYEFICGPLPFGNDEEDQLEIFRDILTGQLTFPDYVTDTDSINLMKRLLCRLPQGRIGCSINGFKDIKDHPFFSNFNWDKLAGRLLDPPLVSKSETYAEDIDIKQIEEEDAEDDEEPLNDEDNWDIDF
Description: (§1) Supplement pone.0149996.s003.xls, sheet "combined_1_sorted"

HepG2 cells = details: HepG2 cells, cited from earlier work
P. falciparum 3D7 cells = details: P. falciparum 3D7, cited from earlier work
DD2 = test system: DD2; design: method as in F.J. Gamo et al., Nature 2010; details: P. falciparum Dd2; downloaded from ChEMBL ref F.J. Gamo et al., Nature 2010; cited from earlier work
3D7 PFLDH [3] = test system: 3D7 PFLDH; design: method as in F.J. Gamo et al., Nature 2010; details: downloaded from ChEMBL ref F.J. Gamo et al., Nature 2010; cited from earlier work
[4] = target: T3, Plasmodium falciparum calcium-dependent protein kinase 1 (CDPK1) (Plasmodium falciparum, UniProt P62344); assay: CDPK1 Kinase-Glo ATP-consumption screen and dose-response; format: biochemical
T3 construct: 6-Histidine (N); made in house
T3 sequence (P62344 whole entry): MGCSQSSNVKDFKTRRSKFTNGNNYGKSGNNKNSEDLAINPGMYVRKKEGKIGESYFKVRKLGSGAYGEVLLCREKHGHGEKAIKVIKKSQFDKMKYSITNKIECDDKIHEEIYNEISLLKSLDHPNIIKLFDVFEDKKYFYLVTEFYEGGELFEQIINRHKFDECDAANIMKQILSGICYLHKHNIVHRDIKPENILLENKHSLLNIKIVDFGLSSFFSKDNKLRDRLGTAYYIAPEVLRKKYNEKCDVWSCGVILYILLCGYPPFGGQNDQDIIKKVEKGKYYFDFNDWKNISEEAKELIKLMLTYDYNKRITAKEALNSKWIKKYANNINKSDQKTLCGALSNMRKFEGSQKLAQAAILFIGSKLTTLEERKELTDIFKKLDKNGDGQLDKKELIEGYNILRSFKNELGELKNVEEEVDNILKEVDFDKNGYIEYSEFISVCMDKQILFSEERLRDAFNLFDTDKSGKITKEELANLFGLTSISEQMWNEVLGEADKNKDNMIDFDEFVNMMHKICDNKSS
In short: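 Single-point testing used 1 μM final compound, then dose-response, against CDPK4 and CDPK1 with Syntide-2 (40 μM) as substrate. After 90 min, reactions were halted by 5 mM EGTA, and kinase activity was inferred from depleted ATP via Kinase-Glo luminescence.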

[5] = target: T4, Plasmodium falciparum protein kinase 6 (PK6) (Plasmodium falciparum, UniProt Q8IDW1); assay: biochemical
T4 construct: 6-Histidine (N); made in house
T4 sequence (Q8IDW1 1-305): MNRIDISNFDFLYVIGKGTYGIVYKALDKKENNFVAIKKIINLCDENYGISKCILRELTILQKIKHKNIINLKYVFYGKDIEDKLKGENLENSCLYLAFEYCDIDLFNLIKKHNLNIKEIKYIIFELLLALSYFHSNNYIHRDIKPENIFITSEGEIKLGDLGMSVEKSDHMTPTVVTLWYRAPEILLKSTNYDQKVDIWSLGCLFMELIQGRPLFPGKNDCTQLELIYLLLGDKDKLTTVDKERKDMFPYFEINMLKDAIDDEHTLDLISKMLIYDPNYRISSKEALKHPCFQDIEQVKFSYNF

P. falciparum DD2 = test system: P. falciparum DD2; design: method as in ChEMBL; details: ref ChEMBL; cited from earlier work
3D7 PFLDH [6] = test system: 3D7 PFLDH; design: method as in ChEMBL; details: ref ChEMBL; cited from earlier work
PKG [7] = target: T2, PKG; assay: PKG IC50 (supplementary data file); format: biochemical
Description: as §1

[8] = downloaded from ChEMBL ref F.J. Gamo et al., Nature 2010
[9] = hits below 1 uM, read-out: CDPK1 IC50
[10] = hits below 1 uM, read-out: PK6 IC50

IC50 [1] [nM] | IC50 (PKG [2]) [nM] | IC50 [4, 9] [nM] | IC50 [5, 10] [nM] | IC50 (PKG [7]) [nM] | Compound | PCT_INHIB_HEPG2 (HepG2 cells; [8]) | PCT_IHB_3D7 (P. falciparum 3D7 cells; [8]) | pXC50_3D7 (P. falciparum 3D7 cells; [8]) | PCT_INHB_DD2 (DD2) | PCT_INHIB_3D7_PFLDH (3D7 PFLDH [3]) | PCT_INHIB_HEPG2 (HepG2 cells; ref ChEMBL) | PCT_IHB_3D7 (P. falciparum 3D7 cells; ref ChEMBL) | pXC50_3D7 (P. falciparum 3D7 cells; ref ChEMBL) | PCT_INHB_DD2 (P. falciparum DD2) | PCT_INHIB_3D7_PFLDH (3D7 PFLDH [6]) | IC50 [4] [nM] | IC50 [5] [nM]
201 | > 10000 |  |  |  | CCS(=O)(=O)c1ccc(OC)c(Nc2nccc(-c3c(-c4cccc(NC(=O)c5c(F)cccc5F)c4)nn4ncccc34)n2)c1 [TCMDC-135682] | 27 | 87 | 5.986 | 88 | 0 |  |  |  |  |  |  | 
 |  | 165 | 335 |  | Cl.Nc1ncnc2occ(-c3ccc(NC(=O)Nc4cc(C(F)(F)F)ccc4F)cc3)c12 [TCMDC-141371] |  |  |  |  |  | 57 | 99 | 5.765 | 99 | 0 |  | 
73 |  |  |  | > 10000 | CCN(CC)CCNC(=O)c1ccc(N/C=C2\C(=O)Nc3ccc(S(=O)(=O)Cc4c(Cl)cccc4Cl)cc32)cc1 [TCMDC-135945] |  |  |  |  |  | 25 | 100 | 6.0758 | 56 | 3 |  | 
 |  | 416 | 122 |  | Cc1ccc(Nc2ccnc(Nc3ccc4c(c3)CS(=O)(=O)C4)n2)cc1O.Cl [TCMDC-138484] |  |  |  |  |  | 82 | 100 | 6.14 | 76 | 5 |  | 
 |  | 110 | 265 |  | O=CO.O=S1(=O)NCc2ccc(Nc3nccc(Nc4ccc5c(cnn5Cc5ccccc5)c4)n3)cc21 [TCMDC-138840] |  |  |  |  |  | 0 | 94 | 6.125 | 33 | 0 |  | 
 |  |  |  |  | CCN(CC)CCOc1ccc(Nc2ncc3cc(-c4c(Cl)cccc4Cl)c(=O)n(C)c3n2)cc1 [TCMDC-140940] |  |  |  |  |  | 72 | 90 | 5.929 | 91 | 1 | 780 | 350
191 | > 10000 |  |  |  | Cn1cccc1C(=O)Nc1cccc(-c2nn3ccccc3c2-c2ccnc(Nc3ccc4c(c3)OCCO4)n2)c1 [TCMDC-135663] | 12 | 95 | 5.869 | 27 | 4 |  |  |  |  |  |  | 
775 | > 10000 |  |  |  | O=C(Nc1ccccc1)Nc1cccc(-c2nn3c(OCCN4CCCC4)cccc3c2-c2ccncc2)c1 [TCMDC-135539] | 30 | 100 | 6.394 | 98 | 4 |  |  |  |  |  |  | 
478 |  |  |  | > 10000 | N#Cc1ccc(C(=O)Nc2cc(-c3cccc(O)c3)cc3[nH]ncc23)cc1 [TCMDC-134118] |  |  |  |  |  | 15 | 90 | 5.863 | 79 | 0 |  | 
 |  | 98 | 445 |  | COc1ccc(Nc2ncc3c(-c4cccc(NC(=O)Cc5ccc(O)cc5)c4)c[nH]c3n2)cc1OC [TCMDC-135248] |  |  |  |  |  | 48 | 100 | 6.244 | 99 | 0 |  | 
 |  |  | 201 |  | N#Cc1cnc(Nc2ccc(Oc3ccccc3)cc2)nc1Nc1cccc(S(N)(=O)=O)c1 [TCMDC-138613] |  |  |  |  |  | 74 | 96 | 6.256 | 86 | 3 |  | 
116 |  |  |  | > 10000 | NS(=O)(=O)c1cccc(N/C=C2\C(=O)Nc3ccc(S(=O)(=O)Cc4c(Cl)cccc4Cl)cc32)c1 [TCMDC-135947] |  |  |  |  |  | 1 | 92 | 6.143 | 99 | 4 |  | 
 |  |  | 110 |  | CCN(CC)CCNC(=O)c1ccc(Nc2ncc([N+](=O)[O-])c(Nc3ccccc3OC)n2)cc1.Cl [TCMDC-138727] |  |  |  |  |  | 59 | 97 | 6.841 | 58 | 0 |  | 
 | 242 | 19 |  |  | CC(C)(CN)c1nc(-c2ccc(Br)c(O)c2)c(-c2ccncc2)[nH]1.Cl [TCMDC-140680] | 31 | 96 | 6.015 | 97 | 0 |  |  |  |  |  |  | 
 |  |  | 164 |  | Cl.N=C(N)c1ccc(Nc2nc(Nc3ccc(-c4ccccc4)cc3)ncc2[N+](=O)[O-])cc1 [TCMDC-136145] |  |  |  |  |  | 11 | 99 | 6.095 | 35 | 0 |  | 
 |  |  | 151 |  | Cc1cc(Nc2nc(Nc3cccc(Cl)c3)nc3ccccc23)n[nH]1 [TCMDC-134695] |  |  |  |  |  | 9 | 100 | 6.542 | 95 | 0 |  | 
 |  |  | 823 |  | Cc1ccc(S(=O)(=O)Nc2ccc(Nc3nccc(Nc4cccc5[nH]ncc45)n3)cc2)cc1 [TCMDC-136297] |  |  |  |  |  | 57 | 90 | 6.019 | 5 | 6 |  | 

Compound | IC50 [1] [nM] | IC50 (PKG [2]) [nM] | IC50 [4, 9] [nM] | IC50 [5, 10] [nM] | IC50 (PKG [7]) [nM] | PCT_INHIB_HEPG2 (HepG2 cells; [8]) | PCT_IHB_3D7 (P. falciparum 3D7 cells; [8]) | pXC50_3D7 (P. falciparum 3D7 cells; [8]) | PCT_INHB_DD2 (DD2) | PCT_INHIB_3D7_PFLDH (3D7 PFLDH [3]) | PCT_INHIB_HEPG2 (HepG2 cells; ref ChEMBL) | PCT_IHB_3D7 (P. falciparum 3D7 cells; ref ChEMBL) | pXC50_3D7 (P. falciparum 3D7 cells; ref ChEMBL) | PCT_INHB_DD2 (P. falciparum DD2) | PCT_INHIB_3D7_PFLDH (3D7 PFLDH [6]) | IC50 [4] [nM] | IC50 [5] [nM]
Cc1csc(-c2ncc(OC[C@@H](N)Cc3ccccc3)cc2-c2ccc3[nH]nc(C)c3c2)c1.O=C(O)C(F)(F)F [TCMDC-136087] | 420 |  | 44 |  | > 10000 |  |  |  |  |  | 48 | 98 | 6.078 | 35 | 4 |  | 
Cn1cnc2c(Nc3ccncc3)nc(-c3ccc4c(c3)OCO4)nc21.O=C(O)C(F)(F)F [TCMDC-141274] |  |  |  | 500 |  |  |  |  |  |  | 19 | 96 | 5.953 | 2 | 0 |  | 
Cn1nc(-c2ccc(NC(=O)Nc3ccc4ccccc4c3)c(F)c2)c2cnc(NCCN3CCOCC3)nc21.O=C(O)C(F)(F)F [TCMDC-141561] |  |  |  | 860 |  |  |  |  |  |  | 62 | 93 | 5.992 | 3 | 1 |  | 
Cc1n[nH]c2ccc(-c3cc(OC[C@@H](N)Cc4ccccc4)cnc3-c3cc4ccccc4s3)cc12.O=C(O)C(F)(F)F [TCMDC-136352] | 563 |  |  |  | > 10000 |  |  |  |  |  | 41 | 99 | 6.092 | 68 | 0 |  | 
